Data from the supplement of paper PMC9386025.

The compounds below were run on Kuramochi (assay: drug sensitivity score (DSS) (DSS (dimensionless)); higher = more sensitive (stronger drug response)). Conditions: genetic perturbation: DOX-induced control shRNA.
Procedure, shortened: (§1)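 Ovarian cancer cell lines, after at least three days of shRNA induction with 100 ng/ml doxycycline, and patient-derived cultures were plated at 1 000 – 1 500 cells per well into 384-well plates pre-loaded with drugs at five concentrations spanning a 10,000-fold range. Plates were then kept for three days at 37 °C and 5.0 % CO2. Viability was measured as CellTiter-Glo luminescence on a PHERAstar FS, and each drug's dose-response curve was reduced to a drug sensitivity score computed by a previously described method.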
With Nc1ccccc1NC(=O)c1ccc(CNc2nccc(-c3cccnc3)n2)cc1 [Mocetinostat] the drug sensitivity score was 4.1.
For CCNC(=O)C[C@@H]1N=C(c2ccc(Cl)cc2)c2cc(OC)ccc2-n2c(C)nnc21 [Molibresib], the drug sensitivity score was 4.
In the case of N#CCNC(=O)c1ccc(-c2ccnc(Nc3ccc(N4CCOCC4)cc3)n2)cc1 [Momelotinib], the drug sensitivity score is reported as 2.1.
Cc1cc(OCc2nnc(SC3CCCC3)n2-c2cccnc2)ccc1-c1ccc(S(C)(=O)=O)cc1 [NMS-873] gave a drug sensitivity score of 6.2.
For COc1ccc(-c2ccc3ncc4c(c3c2)n(-c2ccc(N3CCNCC3)c(C(F)(F)F)c2)c(=O)n4C)cn1 [NVP-BGT226], the drug sensitivity score was 13.4.
COc1cc2c(cc1OC(C)C)[C@H](c1ccc(Cl)cc1)N(c1ccc(N(C)C[C@H]3CC[C@H](N4CCN(C)C(=O)C4)CC3)cc1)C(=O)C2 [NVP-CGM097] showed a drug sensitivity score of 8.
Compound CN[C@@H](C)C(=O)N[C@H](C(=O)N1CCC[C@H]1c1nc(C(=O)c2ccc(F)cc2)cs1)C1CCCCC1 [NVP-LCL161] has a drug sensitivity score of 4.2.
Work on Cn1c(Nc2ccc(C(F)(F)F)cc2)nc2cc(Oc3ccnc(-c4ncc(C(F)(F)F)[nH]4)c3)ccc21 [NVP-RAF265] yielded a drug sensitivity score of less than 0.
Compound CC(=O)c1cc2c(o1)C(=O)c1ccccc1C2=O [Napabucasin] has a drug sensitivity score of 17.3.
With CC1(C)CCC(c2ccc(Cl)cc2)=C(CN2CCN(c3ccc(C(=O)NS(=O)(=O)c4ccc(N[C@H](CCN5CCOCC5)CSc5ccccc5)c(S(=O)(=O)C(F)(F)F)c4)cc3)CC2)C1 [Navitoclax] the drug sensitivity score was 4.3.
CCOc1cc2ncc(C#N)c(Nc3ccc(OCc4ccccn4)c(Cl)c3)c2cc1NC(=O)/C=C/CN(C)C [Neratinib] showed a drug sensitivity score of less than 0.
Work on COC(=O)c1ccc2c(c1)NC(=O)/C2=C(\Nc1ccc(N(C)C(=O)CN2CCN(C)CC2)cc1)c1ccccc1 [Nintedanib] yielded a drug sensitivity score of 2.7.
CC(=O)c1cnc2ccc(-c3cc(Cl)c(O)c(Cl)c3)nc2c1N[C@H]1CC[C@H](CN(C)C)CC1 [OTS167] showed a drug sensitivity score of 5.8.
O=C(c1cc(Cc2n[nH]c(=O)c3ccccc23)ccc1F)N1CCN(C(=O)C2CC2)CC1 [Olaparib] gave a drug sensitivity score of 2.6.
Work on COC(=O)C[C@](O)(CCCC(C)(C)O)C(=O)O[C@@H]1C(OC)=C[C@]23CCCN2CCc2cc4c(cc2[C@H]13)OCO4 [Omacetaxine] yielded a drug sensitivity score of 14.3.
CC1(C)CC[C@]2(NC(=O)C(C)(F)F)CC[C@]3(C)[C@H](C(=O)C=C4[C@@]5(C)C=C(C#N)C(=O)C(C)(C)[C@@H]5CC[C@]43C)[C@@H]2C1 [Omaveloxolone] showed a drug sensitivity score of 14.1.
COc1ncc(-c2ccc3nccc(-c4ccnnc4)c3c2)cc1NS(=O)(=O)c1ccc(F)cc1F [Omipalisib] was tested, and the drug sensitivity score was 10.8.

What follows are compounds tested on FIMM-PDC4 (patient-derived ovarian cancer cells) in the same assay as above. Conditions: genetic perturbation: none (patient-derived cell culture).
Procedure, shortened: as §1
In the case of COc1cc(C(=O)O)ccc1NC(=O)[C@@H]1N[C@@H](CC(C)(C)C)[C@](C#N)(c2ccc(Cl)cc2F)[C@H]1c1cccc(Cl)c1F [Idasanutlin], the drug sensitivity score is reported as 5.
In the case of O=C(Nc1ccncc1)C(=O)c1cn(Cc2ccc(Cl)cc2)c2ccccc12 [Indibulin], the drug sensitivity score is reported as 8.8.
CC(C)NC[C@@H](C(=O)N1CCN(c2ncnc3c2[C@H](C)C[C@H]3O)CC1)c1ccc(Cl)cc1 [Ipatasertib] was tested, and the drug sensitivity score was 5.9.
CC(C)C[C@H](NC(=O)CNC(=O)c1cc(Cl)ccc1Cl)B(O)O [Ixazomib] was tested, and the drug sensitivity score was 13.8.
With CCNCCS(=O)(=O)NC[C@@]1(c2ccccc2)SC(NC(=O)C(C)(C)C)=NN1C(=O)C(C)(C)C [Litronesib] the drug sensitivity score was 15.2.
With NC(=O)N1CCC(CC(=O)N2CCC([C@H]3c4ncc(Br)cc4CCc4cc(Cl)cc(Br)c43)CC2)CC1 [Lonafarnib] the drug sensitivity score was 6.3.
CCNC(=O)c1noc(-c2cc(C(C)C)c(O)cc2O)c1-c1ccc(CN2CCOCC2)cc1 [Luminespib] was tested, and the drug sensitivity score was 26.
O=C(Nc1cccc(NC(=O)c2cccc(O)c2O)c1)c1cccc(O)c1O [MST-312] showed a drug sensitivity score of 6.7.
In the case of CCN(CC)CCCC(C)Nc1c2ccc(Cl)cc2nc2ccc(OC)cc12 (stereo not given) [Mepacrine], the drug sensitivity score is reported as 17.1.
Work on S=c1[nH]cnc2nc[nH]c12 [Mercaptopurine] yielded a drug sensitivity score of less than 0.
With CN(Cc1cnc2nc(N)nc(N)c2n1)c1ccc(C(=O)N[C@@H](CCC(=O)O)C(=O)O)cc1 [Methotrexate] the drug sensitivity score was less than 0.
For CO[C@@H]1[C@H](N(C)C(=O)c2ccccc2)C[C@H]2O[C@]1(C)n1c3ccccc3c3c4c(c5c6ccccc6n2c5c31)C(=O)NC4 [Midostaurin], the drug sensitivity score was 15.7.
Work on CNC(=O)c1nn(C)c2c1C(C)(C)Cc1cnc(Nc3ccc(N4CCN(C)CC4)cc3)nc1-2 [Milciclib] yielded a drug sensitivity score of 8.2.
CCCCCCCCCCCCCCCCOP(=O)([O-])OCC[N+](C)(C)C [Miltefosine] was tested, and the drug sensitivity score was 6.6.
For O=C1c2c(O)ccc(O)c2C(=O)c2c(NCCNCCO)ccc(NCCNCCO)c21 [Mitoxantrone], the drug sensitivity score was 5.1.
In the case of CCS(=O)(=O)Nc1ccc(Oc2ccc(F)cc2F)c(-c2cn(C)c(=O)c3[nH]ccc23)c1 [Mivebresib], the drug sensitivity score is reported as 12.2.
Nc1ccccc1NC(=O)c1ccc(CNc2nccc(-c3cccnc3)n2)cc1 [Mocetinostat] showed a drug sensitivity score of 7.1.
For CCNC(=O)C[C@@H]1N=C(c2ccc(Cl)cc2)c2cc(OC)ccc2-n2c(C)nnc21 [Molibresib], the drug sensitivity score was 3.3.
With N#CCNC(=O)c1ccc(-c2ccnc(Nc3ccc(N4CCOCC4)cc3)n2)cc1 [Momelotinib] the drug sensitivity score was 4.1.
Compound Cc1cc(OCc2nnc(SC3CCCC3)n2-c2cccnc2)ccc1-c1ccc(S(C)(=O)=O)cc1 [NMS-873] has a drug sensitivity score of 8.3.
COc1ccc(-c2ccc3ncc4c(c3c2)n(-c2ccc(N3CCNCC3)c(C(F)(F)F)c2)c(=O)n4C)cn1 [NVP-BGT226] gave a drug sensitivity score of 19.7.
Work on COc1cc2c(cc1OC(C)C)[C@H](c1ccc(Cl)cc1)N(c1ccc(N(C)C[C@H]3CC[C@H](N4CCN(C)C(=O)C4)CC3)cc1)C(=O)C2 [NVP-CGM097] yielded a drug sensitivity score of 9.2.
For CN[C@@H](C)C(=O)N[C@H](C(=O)N1CCC[C@H]1c1nc(C(=O)c2ccc(F)cc2)cs1)C1CCCCC1 [NVP-LCL161], the drug sensitivity score was 1.7.
Cn1c(Nc2ccc(C(F)(F)F)cc2)nc2cc(Oc3ccnc(-c4ncc(C(F)(F)F)[nH]4)c3)ccc21 [NVP-RAF265] was tested, and the drug sensitivity score was 2.9.
CC(=O)c1cc2c(o1)C(=O)c1ccccc1C2=O [Napabucasin] was tested, and the drug sensitivity score was 15.3.
CC1(C)CCC(c2ccc(Cl)cc2)=C(CN2CCN(c3ccc(C(=O)NS(=O)(=O)c4ccc(N[C@H](CCN5CCOCC5)CSc5ccccc5)c(S(=O)(=O)C(F)(F)F)c4)cc3)CC2)C1 [Navitoclax] showed a drug sensitivity score of 6.2.
CCOc1cc2ncc(C#N)c(Nc3ccc(OCc4ccccn4)c(Cl)c3)c2cc1NC(=O)/C=C/CN(C)C [Neratinib] gave a drug sensitivity score of 11.9.
COC(=O)c1ccc2c(c1)NC(=O)/C2=C(\Nc1ccc(N(C)C(=O)CN2CCN(C)CC2)cc1)c1ccccc1 [Nintedanib] gave a drug sensitivity score of 8.5.
CC(=O)c1cnc2ccc(-c3cc(Cl)c(O)c(Cl)c3)nc2c1N[C@H]1CC[C@H](CN(C)C)CC1 [OTS167] was tested, and the drug sensitivity score was 12.3.
Compound O=C(c1cc(Cc2n[nH]c(=O)c3ccccc23)ccc1F)N1CCN(C(=O)C2CC2)CC1 [Olaparib] has a drug sensitivity score of 3.8.
COC(=O)C[C@](O)(CCCC(C)(C)O)C(=O)O[C@@H]1C(OC)=C[C@]23CCCN2CCc2cc4c(cc2[C@H]13)OCO4 [Omacetaxine] was tested, and the drug sensitivity score was 22.9.
With CC1(C)CC[C@]2(NC(=O)C(C)(F)F)CC[C@]3(C)[C@H](C(=O)C=C4[C@@]5(C)C=C(C#N)C(=O)C(C)(C)[C@@H]5CC[C@]43C)[C@@H]2C1 [Omaveloxolone] the drug sensitivity score was 9.9.
COc1ncc(-c2ccc3nccc(-c4ccnnc4)c3c2)cc1NS(=O)(=O)c1ccc(F)cc1F [Omipalisib] gave a drug sensitivity score of 19.8.
